Test results reported in patent US9873709B2 (priority 2013, dated 2018).
Structures can show the parent of a compound that is named as a salt.

Test system: JAK1-dependent STAT6 phosphorylation downstream of IL-13 stimulation in TF-1 human erythroleukemia cells
Assay: cells
Details: TF-1, read-out: IL-13-pSTAT6 IC50

Row | SMILES | IC50 [nM]
1 | O=C(c1ccc(Nc2nc3c(N4CCC(O)(c5ccc(Cl)cc5)CC4)cccn3n2)cc1)N1C[C@@H]2CCN[C@@H]2C1 [Example 1-234] | 36.1
2 | CN1CCOC2(C1)CN(C(=O)c1ccc(Nc3nc4c(C5=CCN(C(=O)CCC(F)(F)F)CC5)cccn4n3)cc1)C2 [Example 2-259, 4,4,4-trifluoro-1-[4-[2-[4-(8-methyl-5-oxa-2,8-diazaspiro[3.5]nonane-2-carbonyl)anilino]-[1,2,4]triazolo[1,5-a]pyridin-8-yl]-3,6-dihydro-2H-pyridin-1-yl]butan-1-one] | 5.8
3 | CC1CC(C(=O)N2CC=C(c3cccn4nc(Nc5ccc(C(=O)N(C)C6CCN(C)CC6)cc5)nc34)CC2)C1 (centres unmarked) [Example 2-263, N-methyl-4-[[8-[1-(3-methylcyclobutanecarbonyl)-3,6-dihydro-2H-pyridin-4-yl]-[1,2,4]triazolo[1,5-a]pyridin-2-yl]amino]-N-(1-methyl-4-piperidyl)benzamide] | 29.6
4 | CN1CCN(C(=O)C2CCN(C(=O)c3ccc(Nc4nc5c(C6=CCN(C(=O)CCC(F)(F)F)CC6)cccn5n4)cc3)CC2)CC1 [Example 2-475, 4,4,4-trifluoro-1-[4-[2-[4-[4-(4-methylpiperazine-1-carbonyl)piperidine-1-carbonyl]anilino]-[1,2,4]triazolo[1,5-a]pyridin-8-yl]-3,6-dihydro-2H-pyridin-1-yl]butan-1-one] | 42.9
5 | O=C(c1ccc(Nc2nc3c(N4CCC(O)(c5ccc(Cl)cc5)CC4)cccn3n2)cc1)N1CC[C@H]2CNC[C@H]21 [Example 1-241, [(3aS,6aS)-3,3a,4,5,6,6a-hexahydro-2H-pyrrolo[2,3-c]pyrrol-1-yl]-[4-[[8-[4-(4-chlorophenyl)-4-hydroxy-1-piperidyl]-[1,2,4]triazolo[1,5-a]pyridin-2-yl]amino]phenyl] methanone] | 115
6 | CN(Cc1ccccc1)C1CCCN(C(=O)c2ccc(Nc3nc4c(C5=CCN(C(=O)CCC(F)(F)F)CC5)cccn4n3)cc2)C1 (centres unmarked) [Example 2-472, 1-[4-[2-[4-[3-[benzyl(methyl)amino]piperidine-1-carbonyl]anilino]-[1,2,4]triazolo[1,5-a]pyridin-8-yl]-3,6-dihydro-2H-pyridin-1-yl]-4,4,4-trifluoro-butan-1-one] | 67.9
7 | CCOC(=O)N1CC=C(c2cccn3nc(Nc4ccc(C(=O)NCCc5ccncc5)cc4)nc23)CC1 [Example 2-172, ethyl 4-[2-[4-[2-(4-pyridyl)ethylcarbamoyl]anilino]-[1,2,4]triazolo[1,5-a]pyridin-8-yl]-3,6-dihydro-2H-pyridine-1-carboxylate] | 12
8 | O=C(NC1CCCNC1)c1ccc(Nc2nc3c(C4=CCN(C(=O)CCC(F)(F)F)CC4)cccn3n2)cc1 (centres unmarked) [Example 2-137, N-(3-piperidyl)-4-[[8-[1-(4,4,4-trifluorobutanoyl)-3,6-dihydro-2H-pyridin-4-yl]-[1,2,4]triazolo[1,5-a]pyridin-2-yl]amino]benzamide] | 78.8
9 | CN1CCN(C(=O)c2ccc(Nc3nc4c(C5=CCN(C(=O)CCC(F)(F)F)CC5)cccn4n3)cc2)CC1 [Example 2-98, 4,4,4-trifluoro-1-[4-[2-[4-(4-methylpiperazine-1-carbonyl)anilino]-[1,2,4]triazolo[1,5-a]pyridin-8-yl]-3,6-dihydro-2H-pyridin-1-yl]butan-1-one] | 11.5
10 | CN1CCC(N(C)C(=O)c2ccc(Nc3nc4c(C5=CCN(C(=O)CCO)CC5)cccn4n3)cc2)CC1 [Example 2-9, 4-[[8-[1-(3-hydroxypropanoyl)-3,6-dihydro-2H-pyridin-4-yl]-[1,2,4]triazolo[1,5-a]pyridin-2-yl]amino]-N-methyl-N-(1-methyl-4-piperidyl)benzamide] | 620
11 | O=C(NC1COC2(CCNCC2)C1)c1ccc(Nc2nc3c(N4CCC(O)(c5ccc(Cl)cc5)CC4)cccn3n2)cc1 (centres unmarked) [Example 1-221, 4-[[8-[4-(4-chlorophenyl)-4-hydroxy-1-piperidyl]-[1,2,4]triazolo[1,5-a]pyridin-2-yl]amino]-N-(1-oxa-8-azaspiro[4.5]decan-3-yl)benzamide] | 866
12 | CN1CCCC(CNC(=O)c2ccc(Nc3nc4c(C5=CCN(C(=O)CCC(F)(F)F)CC5)cccn4n3)cc2)C1 (centres unmarked) [Example 2-337, N-[(1-methyl-3-piperidyl)methyl]-4-[[8-[1-(4,4,4-trifluorobutanoyl)-3,6-dihydro-2H-pyridin-4-yl]-[1,2,4]triazolo[1,5-a]pyridin-2-yl]amino]benzamide] | 28.9
13 | O=C(CCC(F)(F)F)N1CC=C(c2cccn3nc(Nc4ccc(C(=O)N5CC6CNCC(C5)O6)cc4)nc23)CC1 [Example 2-37, 4,4,4-trifluoro-1-[4-[2-[4-(9-oxa-3,7-diazabicyclo[3.3.1]nonane-3-carbonyl)anilino]-[1,2,4]triazolo[1,5-a]pyridin-8-yl]-3,6-dihydro-2H-pyridin-1-yl]butan-1-one] | 85.4
14 | O=C(CCC(F)(F)F)N1CC=C(c2cccn3nc(Nc4ccc(C(=O)N5CCCCC5c5cccnc5)cc4)nc23)CC1 (centres unmarked) [Example 2-280, 4,4,4-trifluoro-1-[4-[2-[4-[2-(3-pyridyl)piperidine-1-carbonyl]anilino]-[1,2,4]triazolo[1,5-a]pyridin-8-yl]-3,6-dihydro-2H-pyridin-1-yl]butan-1-one] | 9.5
15 | CCOC(=O)N1CC=C(c2cccn3nc(Nc4ccc(C(=O)N5CC6CN(C)CC(C5)O6)cc4)nc23)CC1 [Example 2-123, ethyl 4-[2-[4-(7-methyl-9-oxa-3,7-diazabicyclo[3.3.1]nonane-3-carbonyl)anilino]-[1,2,4]triazolo[1,5-a]pyridin-8-yl]-3,6-dihydro-2H-pyridine-1-carboxylate] | 48.8
16 | CN1CCC(N(C)C(=O)c2ccc(Nc3nc4c(C5=CCN(C(=O)C6CCOC6)CC5)cccn4n3)cc2)CC1 (centres unmarked) [Example 2-107, N-methyl-N-(1-methyl-4-piperidyl)-4-[[8-[1-(tetrahydrofuran-3-carbonyl)-3,6-dihydro-2H-pyridin-4-yl]-[1,2,4]triazolo[1,5-a]pyridin-2-yl]amino]benzamide; hydrochloride] | 422
17 | CN1C[C@@H]2CCN(C(=O)c3ccc(Nc4nc5c(C6=CCN(C(=O)CCC(F)(F)F)CC6)cccn5n4)cc3)[C@@H]2C1 [Example 2-326, 1-[4-[2-[4-[(3aS,6aS)-5-methyl-2,3,3a,4,6,6a-hexahydropyrrolo[2,3-c]pyrrole-1-carbonyl]anilino]-[1,2,4]triazolo[1,5-a]pyridin-8-yl]-3,6-dihydro-2H-pyridin-1-yl]-4,4,4-trifluoro-butan-1-one] | 4.2
18 | O=C(CCC(F)(F)F)N1CC=C(c2cccn3nc(Nc4ccc(C(=O)N5CCCC56CCNC6)cc4)nc23)CC1 (centres unmarked) [Example 2-440, 1-[4-[2-[4-(1,7-diazaspiro[4.4]nonane-1-carbonyl)anilino]-[1,2,4]triazolo[1,5-a]pyridin-8-yl]-3,6-dihydro-2H-pyridin-1-yl]-4,4,4-trifluoro-butan-1-one] | 156
19 | O=C(NCC1CCCNC1)c1ccc(Nc2nc3c(C4=CCN(C(=O)CCC(F)(F)F)CC4)cccn3n2)cc1 (centres unmarked) [Example 2-192, N-(3-piperidylmethyl)-4-[[8-[1-(4,4,4-trifluorobutanoyl)-3,6-dihydro-2H-pyridin-4-yl]-[1,2,4]triazolo[1,5-a]pyridin-2-yl]amino]benzamide] | 213
20 | CN1C2COCC1CN(C(=O)c1ccc(Nc3nc4c(C5=CCN(C(=O)CCC(F)(F)F)CC5)cccn4n3)cc1)C2 [Example 2-458, 4,4,4-trifluoro-1-[4-[2-[4-(9-methyl-3-oxa-7,9-diazabicyclo[3.3.1]nonane-7-carbonyl)anilino]-[1,2,4]triazolo[1,5-a]pyridin-8-yl]-3,6-dihydro-2H-pyridin-1-yl]butan-1-one] | 45.9
21 | O=C(c1ccc(Nc2nc3c(N4CCC(O)(c5ccc(Cl)cc5)CC4)cccn3n2)cc1)N1CC2(CCCNC2)C1 [Example 1-210, [4-[[8-[4-(4-chlorophenyl)-4-hydroxy-1-piperidyl]-[1,2,4]triazolo[1,5-a]pyridin-2-yl]amino]phenyl]-(2,8-diazaspiro[3.5]nonan-2-yl)methanone] | 43.5
22 | CN1CCC(C2CCCCN2C(=O)c2ccc(Nc3nc4c(C5=CCN(C(=O)CCC(F)(F)F)CC5)cccn4n3)cc2)CC1 (centres unmarked) [Example 2-149, 4,4,4-trifluoro-1-[4-[2-[4-[2-(1-methyl-4-piperidyl)piperidine-1-carbonyl]anilino]-[1,2,4]triazolo[1,5-a]pyridin-8-yl]-3,6-dihydro-2H-pyridin-1-yl]butane-1-one] | 10.7
23 | Cc1ccnc(CNC(=O)c2ccc(Nc3nc4c(C5=CCN(C(=O)CCC(F)(F)F)CC5)cccn4n3)cc2)c1 [Example 2-41, N-[(4-methyl-2-pyridyl)methyl]-4-[[8-[1-(4,4,4-trifluorobutanoyl)-3,6-dihydro-2H-pyridin-4-yl]-[1,2,4]triazolo[1,5-a]pyridin-2-yl]amino]benzamide] | 5.2
24 | O=C(CCC(F)(F)F)N1CC=C(c2cccn3nc(Nc4ccc(C(=O)N5CCN(Cc6cccnc6)CC5)cc4)nc23)CC1 [Example 2-394, 4,4,4-trifluoro-1-[4-[2-[4-[4-(3-pyridylmethyl)piperazine-1-carbonyl]anilino]-[1,2,4]triazolo[1,5-a]pyridin-8-yl]-3,6-dihydro-2H-pyridin-1-yl]butan-1-one] | 4
25 | CN1CCCCC1CNC(=O)c1ccc(Nc2nc3c(C4=CCN(C(=O)CCC(F)(F)F)CC4)cccn3n2)cc1 (centres unmarked) [Example 2-214, N-[(1-methyl-2-piperidyl)methyl]-4-[[8-[1-(4,4,4-trifluorobutanoyl)-3,6-dihydro-2H-pyridin-4-yl]-[1,2,4]triazolo[1,5-a]pyridin-2-yl]amino]benzamide] | 5.5
26 | COCCN(C(=O)c1ccc(Nc2nc3c(C4=CCN(C(=O)CCC(F)(F)F)CC4)cccn3n2)cc1)C1CCN(C)CC1 [Example 2-209, N-(2-methoxyethyl)-N-(1-methyl-4-piperidyl)-4-[[8-[1-(4,4,4-trifluorobutanoyl)-3,6-dihydro-2H-pyridin-4-yl]-[1,2,4]triazolo[1,5-a]pyridin-2-yl]amino]benzamide] | 29.9
